In patent US9066848B2, “Process for making sterile aripiprazole of desired mean particle size” (Bristol-Myers Squibb Company, priority 2003, dated 2015):

Key:
[1] = at room temperature; cited from earlier work
[2] = particle size of crystallized bulk aripiprazole; assay type: physicochemical

O=C1CCc2ccc(OCCCCN3CCN(c4cccc(Cl)c4Cl)CC3)cc2N1 [Aripiprazole, aripiprazole]
aqueous solubility [1]: < 1 µg/mL | particle size (95% of particles) ([2]; Example 1: impinging jet crystallization with sonication, 2° C. water anti-solvent): < 100 microns | particle size (95% of particles) ([2]; Example 2: impinging jet crystallization without sonication, 30° C. water anti-solvent): < 100 microns | particle size ([2]; batch crystallization (comparison)): 100 microns
